Measurements: patent US11147875B2, “Compositions, combinations and related methods for photoimmunotherapy” (priority 2015, dated 2021)
Where two headings read alike, the source gives them in different places.

Legend:
[1] = cited from earlier work
[2] = system: A431 cells; assay: EGF-IRDye 700DX light-dependent killing; assay type: cell-based; conditions: for light-dependent killing: 24 hours
Description: Photo-activated EGF-IR700 cell killing was assessed in A431 cells. A431 cells were seeded at 5000 cells per well in 96 well white clear bottom dishes one day prior to the experiment. The following day, the A431 cells were washed three times with EMEM supplemented with 1% Penicillin/Streptomycin (serum free media). The A431 cells were then washed one time with serum free media, then incubated with serum free media containing 1 μg/mL of EGF-IRDye 700DX for one hour at 4° C. or serum free media only. […] The cells were then washed one time with serum free media.
To induce IR700-dependent killing, the cells were then illuminated with a 690 nm laser with 32 J/cm^2 of light or protected from light (“no light”). Cell death was evaluated as described in Example 6 using CellTox Green. The normalized percentage of dead cells was calculated by subtracting all wells by the percentage of dead cells from the no light serum free media only control, dividing by EGF-IRDye 700DX at 32 J/cm^2 minus the no light serum free media only control, and multiplied 100.
The effect of EGF-IRDye 700DX pre-exposure to white light versus green light on photo-activated cell killing was also evaluated in A431 cells. EGF-IRDye 700DX was pre-exposed to different types of light and the effect of light treatment on photo-activated killing activity was evaluated. Five microliters of EGF-IRDye 700DX conjugate (DAR 2) was added per clear HPLC vial at a EGF-IRDye 700DX concentration of 1.14 mg/mL. The following conditions were tested: (1) the antibody-IRDye 700DX conjugate stored at 4° C. protected from light (“4° C.”, used as the control); (2) antibody-IRDye 700DX conjugate placed in a clear glass HPLC tube under a Halogen lamp at 2500 lux for 24 hrs (“white light”); (3) antibody-IRDye 700DX conjugate placed in a clear glass HPLC tube wrapped in aluminum foil to protect from light exposure under Halogen lamp at 2500 lux for 24 hrs (“no light”), used as a control for thermal heating effects on the formation of aggregates); and (4) antibody-IRDye 700DX conjugate placed in a clear glass HPLC tube and exposed to green LED lamp at 2500 lux for 24 hrs (“green light”).
To assess cell killing activity, A431 cells were washed two times with serum free media, and incubated in serum free media alone for one hour at 4° C. The cells were then washed one time with serum free media and incubated with serum free media alone or serum free media containing 1 μg/mL of EGF-IRDye 700DX (“no light”), serum free media containing 1 μg/mL of EGF-IRDye 700DX pre-exposed to white light (“2500 Lux White light”), or serum free media containing 1 μg/mL EGF-IRDye 700DX pre-exposed to green light for one hour at 4° C. (“2500 Lux Green light”). The cells were then washed one time with serum free media.
To induce cell killing, the cells were either protected from light (light dose 0 J/cm^2) or were illuminated with a 690 nm laser with different light dosimetries (8 J/cm^2, 32 J/cm^2 or 64 J/cm^2).

[3] = system: BxPC3 pancreatic cancer cells; assay: In vitro PIT with panitumumab conjugates; assay type: cell-based; conditions: 10 μg/mL; for killing: 8 J/cm^2 at 690 nm
Description: The two conjugates were tested for efficiency in killing cells in an in vitro PIT assay using the pancreatic cancer line BxPC3. BxPC3 were seeded into 96-well white-wall plates (4,000 cells/well) the day before the experiment. Antibody conjugates were added to cells at a concentration of 10 μg/mL and were incubated for 2 hours at 37° C. Light of 690 nm was applied by a diode at a constant power output of 50 mW/cm^2. The illumination time was modulated to achieve the fluences 4 J/cm^2, 8 J/cm^2 or 16 J/cm^2. As a control, a group of cells was not irradiated with light (0 J/cm^2). To monitor the progression of cell death after light treatment, the conjugate containing medium was replaced by fresh medium containing CellTox Green (Promega), a dye that reports cell death based on compromised cell membrane integrity. Time dependent increase in cell death was observed over 24 hours.

[4] = in vivo, 400 mg/m2; cited from earlier work
[5] = system: human iDCs; assay: DC activation after priming with PIT-killed FaDu cells and Poly I:C treatment; assay type: cell-based; conditions: 1 μg/mL overnight, DCs primed with FaDu cells PIT-killed with Cetuximab IRDye 700DX, vs no light controls
Description: FaDu cells grown in complete EMEM media were plated in 100 μL total volume per well in a 96 well tissue culture plate for adherence overnight. […] PIT cell killing was induced by illumination with a 690 nm laser light at a fluence of 12 J/cm^2. The controls represented wells corresponding to the groups not treated with light.
For co-culture, human iDCs (Astarte Biologics) from a healthy donor were directly added into the wells with PIT killed tumor cells and into control wells (non-PIT treated tumor cells). The co-cultures were then incubated for 48 hours at 37° C. in the CO2 incubator. The harvested DCs were then subjected to poly I:C treatment (1 μg/mL) for overnight. The cells were then detached using a non-enzymatic detachment solution.
The harvested cells from various treatment conditions were incubated with live/dead discrimination dye Zombie Green (BioLegend, 1:500) for 20 min at room temperature followed by washing with stain buffer. Cells were resuspended in stain buffer and human Fc blocking reagent (BD) was then added and cells were incubated for 20 min at room temperature. […]
Appropriate gating was performed while analyzing the data to exclude cell debris, and the data was analyzed with gating performed on live events. The results described below are based on median fluorescence intensity (MFI) data from each group which is plotted as fold increase over the no light controls.

C=Cc1c(C)c2cc3nc(c(CC(=O)N[C@@H](CC(=O)[O-])C(=O)[O-])c4[nH]c(cc5nc(cc1[nH]2)C(C)=C5CC)c(C)c4C(=O)[O-])[C@@H](CCC(=O)[O-])[C@@H]3C.[Na+].[Na+].[Na+].[Na+] [NPe6/Laserphyrin®, mono-L-aspartylchlorin e6]
extinction coefficient [1]: 40000 M⁻¹ cm⁻¹

EGF-IRDye 700DX: human recombinant epidermal growth factor (EGF) conjugated to IRDye 700DX (NSDSECPLSHDGYCLHDGVCMYIEALDKYACNCVVGYIGERCQYRDLKWWELR; Epidermal growth factor IRDye 700DX dye; UniProt P01133 971-1023, looked up)
cell killing ([2]; 1 μg/mL, 32 J/cm^2 vs no light): light-dependent killing
cell killing ([2]; cells pre-exposed to 100 μg/mL unconjugated cetuximab): blocked light-dependent cell killing
light-dependent killing ([2]; conjugate pre-exposed to green light, 2500 lux): exhibited light-dependent killing activity comparable
light-dependent killing ([2]; conjugate pre-exposed to white light, 2500 lux): no longer exhibited light-dependent killing activity
light-dependent killing ([2]; conjugate protected from light under halogen lamp): exhibited light-dependent killing

Pan-IRDye 700DX: anti-human EGFR antibody drug panitumumab conjugated only with IRDye 700DX
cell killing ([3]; 4 J/cm^2 at 690 nm): only marginally effective
killing [3]: 74%
cell killing ([3]; 16 J/cm^2 at 690 nm): near complete cell killing

Oc1cccc(-c2c3nc(c(-c4cccc(O)c4)c4ccc([nH]4)c(-c4cccc(O)c4)c4nc(c(-c5cccc(O)c5)c5ccc2[nH]5)CC4)C=C3)c1 [Foscan®, meta-tetrahydroxyphenylchlorin]
extinction coefficient ([1]; 652 nm): 22000 M⁻¹ cm⁻¹

Photofrin®
extinction coefficient [1]: 1200 M⁻¹ cm⁻¹

cetuximab: anti-EGFR antibody cetuximab (Erbitux), not conjugated
AUC0-∞ [4]: 24,740 μg/mL*h

Poly I:C
CD80 and CD86 expression levels [5]: increased CD80 and CD86 expression levels

Pan-IRDye 700DX-Alexa-488: panitumunab conjugated both to IRDye 700DX and Alexa Fluor 488
cell killing ([3]; 4 J/cm^2 at 690 nm): only marginally effective
killing [3]: 73%
cell killing ([3]; 16 J/cm^2 at 690 nm): near complete cell killing
